Data: patent publication US20230072683A1, “PYRIDO-PYRIMIDIN DERIVATIVES AND PHARMACEUTICAL COMPOSITION, FOR USE IN PREVENTING OR TREATING PI3 KINASE RELATED DISEASES, COMPRISING SAME AS ACTIVE INGREDIENT” (BORYUNG PHARMACEUTICAL CO., LTD, priority 2019, published 2023)
Read-outs that look alike come from different tables or passages of the source.

Key:
DNA-PK(h) = DNA-PK(h) (Homo sapiens, UniProt P78527); assay: Evaluation of inhibitory activity against DNA-PK (HTRF kinase assay, GST-cMyc-p53 substrate); type: biochemical; details: for inhibition at 0.01 µM: compound concentration 0.01 μM, read-out: EXP_VALUE(% Inhibition) DNA-PK(h) 0.01 μM; for inhibition at 0.1 µM: read-out: EXP_VALUE(% Inhibition) DNA-PK(h) 0.1 μM
Outline: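 p53 Ser15 phosphorylation by human DNA-PK was measured by time-resolved FRET ratio (665/620 nm ×10000) using Eu-labelled anti-phospho-Ser15 and d2 anti-GST antibodies. Substrate GST-cMyc-p53 at 50 μM; Mg/ATP-initiated, 30 min at room temperature, EDTA stop.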

[1] = target: PI3K-δ (PI3K(p1108/p857) (h)) (Homo sapiens, UniProt O00329); assay: Evaluation of inhibitory activity against PI3K-δ (HTRF kinase assay); type: biochemical; details: for inhibition at 0.01 µM: compound concentration 0.01 μM, read-out: EXP_VALUE(% Inhibition) PI3K-δ 0.01 μM; for inhibition at 0.1 µM: read-out: EXP_VALUE(% Inhibition) PI3K-δ 0.1 μM
Outline: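 HTRF read-out (665/620 nm ratio ×10000) used Eu-labelled anti-GST, GST-tagged GRP1 PH domain and streptavidin-allophycocyanin after EDTA/PIP3 stop.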

Chain of PI3K-δ (PI3K(p1108/p857) (h)) (O00329 whole entry, the tested form may be a part): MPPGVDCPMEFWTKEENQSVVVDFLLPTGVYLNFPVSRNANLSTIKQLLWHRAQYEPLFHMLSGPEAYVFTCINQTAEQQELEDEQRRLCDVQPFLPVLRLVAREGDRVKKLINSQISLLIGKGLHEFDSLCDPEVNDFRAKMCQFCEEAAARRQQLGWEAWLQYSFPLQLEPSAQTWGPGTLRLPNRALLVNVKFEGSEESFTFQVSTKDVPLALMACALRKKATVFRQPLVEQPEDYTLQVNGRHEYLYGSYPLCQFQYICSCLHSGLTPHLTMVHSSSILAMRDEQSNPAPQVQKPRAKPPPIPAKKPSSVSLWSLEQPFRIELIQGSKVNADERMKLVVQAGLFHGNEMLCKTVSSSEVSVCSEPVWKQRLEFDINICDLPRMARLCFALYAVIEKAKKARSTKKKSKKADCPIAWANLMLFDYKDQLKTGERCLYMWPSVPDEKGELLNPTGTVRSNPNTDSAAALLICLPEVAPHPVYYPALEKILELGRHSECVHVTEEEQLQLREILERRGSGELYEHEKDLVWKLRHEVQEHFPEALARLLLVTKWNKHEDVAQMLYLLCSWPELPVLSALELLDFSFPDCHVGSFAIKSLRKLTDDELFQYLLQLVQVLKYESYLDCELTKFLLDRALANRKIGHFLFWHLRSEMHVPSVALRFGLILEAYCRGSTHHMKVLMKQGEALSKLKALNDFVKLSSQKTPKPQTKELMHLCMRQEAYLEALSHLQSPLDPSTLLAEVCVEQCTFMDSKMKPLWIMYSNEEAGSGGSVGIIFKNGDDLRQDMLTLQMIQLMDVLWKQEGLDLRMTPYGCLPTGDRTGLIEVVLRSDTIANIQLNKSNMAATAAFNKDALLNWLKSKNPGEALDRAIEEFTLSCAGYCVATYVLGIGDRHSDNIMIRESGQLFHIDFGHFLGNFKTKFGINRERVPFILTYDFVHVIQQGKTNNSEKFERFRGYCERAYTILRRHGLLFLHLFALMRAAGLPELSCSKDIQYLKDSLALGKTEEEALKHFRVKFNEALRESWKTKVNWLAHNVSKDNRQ
Chain of PI3K-δ (PI3K(p1108/p857) (h)) (P27986 whole entry partner, the tested form may be a part): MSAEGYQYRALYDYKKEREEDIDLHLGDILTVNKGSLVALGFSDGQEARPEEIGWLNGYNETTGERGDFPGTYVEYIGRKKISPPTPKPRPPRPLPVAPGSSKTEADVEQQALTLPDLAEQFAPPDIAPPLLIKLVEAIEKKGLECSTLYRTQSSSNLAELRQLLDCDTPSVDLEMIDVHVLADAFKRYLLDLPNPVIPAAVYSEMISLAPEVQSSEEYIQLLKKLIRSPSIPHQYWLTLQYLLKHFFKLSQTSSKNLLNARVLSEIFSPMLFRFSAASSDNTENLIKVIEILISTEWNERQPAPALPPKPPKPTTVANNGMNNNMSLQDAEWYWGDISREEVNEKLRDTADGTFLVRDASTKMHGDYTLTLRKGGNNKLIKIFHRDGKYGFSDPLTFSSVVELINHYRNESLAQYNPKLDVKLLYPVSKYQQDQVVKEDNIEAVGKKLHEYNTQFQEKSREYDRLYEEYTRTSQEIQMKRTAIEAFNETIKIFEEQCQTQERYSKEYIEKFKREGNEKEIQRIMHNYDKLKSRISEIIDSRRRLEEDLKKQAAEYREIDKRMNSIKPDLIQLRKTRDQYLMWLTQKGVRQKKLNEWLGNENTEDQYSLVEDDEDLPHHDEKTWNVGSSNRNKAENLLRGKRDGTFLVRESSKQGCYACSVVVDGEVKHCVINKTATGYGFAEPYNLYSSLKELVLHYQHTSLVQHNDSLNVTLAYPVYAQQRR

Row | inhibition at 0.01 µM (DNA-PK(h)) | inhibition at 0.1 µM (DNA-PK(h); compound concentration 0.1 μM) | inhibition at 0.01 µM [1] | inhibition at 0.1 µM ([1]; compound concentration 0.1 μM) | inhibition at 0.1 µM (DNA-PK(h); compound at 0.1 μM) | inhibition at 0.1 µM ([1]; compound at 0.1 μM) | Structure (SMILES)
1 | 91% | 101% | 91% | 103% |  |  | COc1cc(-c2cccc3c(Cl)c([C@H](C)Nc4ncnc5[nH]ccc(=O)c45)n(-c4ccccc4)c(=O)c23)cc(OC)c1OC [Example 103, (S)-4-((1-(4-chloro-1-oxo-2-phenyl-8-(3,4,5-trimethoxyphenyl)-1,2-dihydroisoquinolin-3-yl)ethyl)amino)pyrido[2,3-d]pyrimidin-5(8H)-one]
2 |  |  |  |  | 8% | 12% | C[C@H](Nc1ncnc2[nH]ccc(=O)c12)c1c(Cl)c2cccc(SC(C)(C)C)c2c(=O)n1-c1ccccc1 [Example 426, (S)-4-((1-(8-(tert-butylthio)-4-chloro-1-oxo-2-phenyl-1,2-dihydroisoquinolin-3-yl)ethyl)amino)pyrido[2,3-d]pyrimidin-5(8H)-one]
3 | 79% |  | 106% |  |  |  | C[C@H](Nc1ncnc2[nH]ccc(=O)c12)c1c(Cl)c2cccc(-c3cnc(NC4CC4)nc3)c2c(=O)n1-c1ccccc1 [Example 203, (S)-4-((1-(4-chloro-8-(2-(cyclopropylamino)pyrimidin-5-yl)-1-oxo-2-phenyl-1,2-dihydroisoquinolin-3-yl)ethyl)amino)pyrido[2,3-d]pyrimidin-5(8H)-one]
4 |  |  |  |  | 58% | 72% | Cc1ccc(-c2cccc3c(Cl)c([C@H](C)Nc4ncnc5[nH]ccc(=O)c45)n(-c4ccccc4)c(=O)c23)s1 [Example 387, (S)-4-((1-(4-chloro-8-(5-methylthiophen-2-yl)-1-oxo-2-phenyl-1,2-dihydroisoquinolin-3-yl)ethyl)amino)pyrido[2,3-d]pyrimidin-5(8H)-one]
5 | 31% |  | 59% |  |  |  | C[C@H](Nc1ncnc2[nH]ccc(=O)c12)c1c(Cl)c2cccc(-c3ccc(N4CCCCC4)nc3)c2c(=O)n1-c1ccccc1 [Example 194, (S)-4-((1-(4-chloro-1-oxo-2-phenyl-8-(6-(piperidin-1-yl)pyridin-3-yl)-1,2-dihydroisoquinolin-3-yl)ethyl)amino)pyrido[2,3-d]pyrimidin-5(8H)-one]
6 | 61% | 92% | 68% | 88% |  |  | C[C@H](Nc1ncnc2[nH]ccc(=O)c12)c1c(Cl)c2cccc(-c3ccccc3F)c2c(=O)n1-c1ccccc1 [Example 122, (S)-4-((1-(4-chloro-8-(2-fluorophenyl)-1-oxo-2-phenyl-1,2-dihydroisoquinolin-3-yl)ethyl)amino)pyrido[2,3-d]pyrimidin-5(8H)-one]
7 |  |  |  |  | -2% | 16% | C[C@H](Nc1ncnc2[nH]ccc(=O)c12)c1c(Cl)c2cccc(Sc3nc[nH]n3)c2c(=O)n1-c1ccccc1 [Example 400, (S)-4-((1-(8-((1H-1,2,4-triazol-3-yl)thio)-4-chloro-1-oxo-2-phenyl-1,2-dihydroisoquinolin-3-yl)ethyl)amino)pyrido[2,3-d]pyrimidin-5(8H)-one]
8 | -2.5% | 3.2% | 31.5% | 20.4% |  |  | C[C@H](Nc1ncnc2[nH]ccc(=O)c12)c1c(Cl)c2cccc(C#Cc3ccc(-c4ccccc4)cc3)c2c(=O)n1-c1ccccc1 [Example 310, (S)-4-((1-(8-([1,1′-biphenyl]-4-ylethynyl)-4-chloro-1-oxo-2-phenyl-1,2-dihydroisoquinolin-3-yl)ethyl)amino)pyrido[2,3-d]pyrimidin-5(8H)-one]
9 | 66% |  | 92% |  |  |  | C[C@H](Nc1ncnc2[nH]ccc(=O)c12)c1c(Cl)c2cccc(-c3cnc(C(C)(C)O)nc3)c2c(=O)n1-c1ccccc1 [Example 26, (S)-4-((1-(4-chloro-8-(2-(2-hydroxypropan-2-yl)pyrimidin-5-yl)-1-oxo-2-phenyl-1,2-dihydroisoquinolin-3-yl)ethyl)amino)pyrido[2,3-d]pyrimidin-5(8H)-one]
10 | 60% | 92% | 50% | 61% |  |  | C[C@H](Nc1ncnc2[nH]ccc(=O)c12)c1c(Cl)c2cccc(N3CCN(c4ccncc4)CC3)c2c(=O)n1-c1ccccc1 [Example 9, (S)-4-((1-(4-chloro-1-oxo-2-phenyl-8-(4-(pyridin-4-yl)piperazin-1-yl)-1,2-dihydroisoquinolin-3-yl)ethyl)amino)pyrido[2,3-d]pyrimidin-5(8H)-one]
11 |  |  |  |  | 52% | 13% | CC(C)S(=O)(=O)c1cccc2c(Cl)c([C@H](C)Nc3ncnc4[nH]ccc(=O)c34)n(-c3ccccc3)c(=O)c12 [Example 416, (S)-4-((1-(4-chloro-8-(isopropylsulfonyl)-1-oxo-2-phenyl-1,2-dihydroisoquinolin-3-yl)ethyl)amino)pyrido[2,3-d]pyrimidin-5(8H)-one]
12 | -2% |  | 13% |  |  |  | C[C@H](Nc1ncnc2[nH]ccc(=O)c12)c1c(Cl)c2cccc(-c3ncc(C(F)(F)F)cn3)c2c(=O)n1-c1ccccc1 [Example 52, (S)-4-((1-(4-chloro-1-oxo-2-phenyl-8-(5-(trifluoromethyl)pyrimidin-2-yl)-1,2-dihydroisoquinolin-3-yl)ethyl)amino)pyrido[2,3-d]pyrimidin-5(8H)-one]
13 |  |  |  |  | 69% | 81% | CC(C)c1ncc(-c2cccc3c(Cl)c([C@H](C)Nc4ncnc5[nH]ccc(=O)c45)n(-c4ccccc4)c(=O)c23)cn1 [Example 381, (S)-4-((1-(4-chloro-8-(2-isopropylpyrimidin-5-yl)-1-oxo-2-phenyl-1,2-dihydroisoquinolin-3-yl)ethyl)amino)pyrido[2,3-d]pyrimidin-5(8H)-one]
14 | 42% |  | 82% |  |  |  | C[C@H](Nc1ncnc2[nH]ccc(=O)c12)c1c(Cl)c2cccc(C3=CCCC3)c2c(=O)n1-c1ccccc1 [Example 156, (S)-4-((1-(4-chloro-8-(cyclopent-1-en-1-yl)-1-oxo-2-phenyl-1,2-dihydroisoquinolin-3-yl)ethyl)amino)pyrido[2,3-d]pyrimidin-5(8H)-one]
15 | 31% | 76% | 24% | 74% |  |  | C[C@H](Nc1ncnc2[nH]ccc(=O)c12)c1c(Cl)c2cccc(NC3CCOC3)c2c(=O)n1-c1ccccc1 (stereo partly drawn) [Example 331, 4-(((1S)-1-(4-chloro-1-oxo-2-phenyl-8-((tetrahydrofuran-3-yl)amino)-1,2-dihydroisoquinolin-3-yl)ethyl)amino)pyrido[2,3-d]pyrimidin-5(8H)-one]
16 | 18% |  | 99% |  |  |  | CNC(=O)c1cccc2c(Cl)c([C@H](C)Nc3ncnc4[nH]ccc(=O)c34)n(-c3ccccc3)c(=O)c12 [Example 274, (S)-4-chloro-N-methyl-1-oxo-3-(1-((5-oxo-5,8-dihydropyrido[2,3-d]pyrimidin-4-yl)amino)ethyl)-2-phenyl-1,2-dihydroisoquinoline-8-carboxamide]
17 | 56% | 91% | 73% | 95% |  |  | C[C@H](Nc1ncnc2[nH]ccc(=O)c12)c1c(Cl)c2cccc(-c3ccc(C=O)cc3)c2c(=O)n1-c1ccccc1 [Example 85, (S)-4-(4-chloro-1-oxo-3-(1-((5-oxo-5,8-dihydropyrido[2,3-d]pyrimidin-4-yl)amino)ethyl)-2-phenyl-1,2-dihydroisoquinolin-8-yl)benzaldehyde]
